Data set [1] concerns the target T1, Steryl-sulfatase (Homo sapiens) (UniProt P08842).
T1 sequence (whole entry): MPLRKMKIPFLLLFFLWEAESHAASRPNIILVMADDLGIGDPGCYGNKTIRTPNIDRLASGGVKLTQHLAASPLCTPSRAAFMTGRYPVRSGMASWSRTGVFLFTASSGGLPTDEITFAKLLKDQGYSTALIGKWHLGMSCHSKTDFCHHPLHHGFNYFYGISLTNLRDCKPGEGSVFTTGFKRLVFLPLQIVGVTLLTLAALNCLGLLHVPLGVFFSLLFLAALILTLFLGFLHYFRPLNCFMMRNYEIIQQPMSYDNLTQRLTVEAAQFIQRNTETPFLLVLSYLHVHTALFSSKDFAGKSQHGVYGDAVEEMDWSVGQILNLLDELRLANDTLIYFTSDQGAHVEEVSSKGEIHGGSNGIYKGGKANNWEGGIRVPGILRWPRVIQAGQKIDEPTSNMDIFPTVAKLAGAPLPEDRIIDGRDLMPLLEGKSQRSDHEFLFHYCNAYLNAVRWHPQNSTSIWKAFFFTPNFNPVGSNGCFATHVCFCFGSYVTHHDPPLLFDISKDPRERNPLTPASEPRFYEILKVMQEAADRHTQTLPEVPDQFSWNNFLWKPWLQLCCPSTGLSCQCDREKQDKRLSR
Nature of the data set: Compound was tested for the Inhibitory activity against the Estrone Sulfatase at a concentration of 50 uM.

The nature of data set [2]: Dissociation constant determined by calculating its overall stability. In kind it is physicochemical.
Data set [3] has as its target T1, Steryl-sulfatase (Homo sapiens). Put plainly: Compound was tested for the Inhibitory activity against the Estrone Sulfatase at a concentration of 10 uM.
For data set [4], the target named is T2, Steryl-sulfatase (Homo sapiens, UniProt P08842).
T2 sequence (P08842 whole entry): T1 sequence (whole entry)
Put plainly: Inhibitory activity against Estrone Sulfatase.

In data set [5] the target is T1, Steryl-sulfatase (Homo sapiens). Put plainly: Compound was tested for the Inhibitory activity against the Estrone sulfatase at a concentration of 50 uM.
The target is the same in data set [6]. Put plainly: Compound was tested for the Inhibitory activity against the Estrone sulfatase at a concentration of 10 uM.
In data set [7] the target is T2, Steryl-sulfatase. Put plainly: Inhibitory activity against Estrone sulfatase was determined.

Structures are written as SMILES.

Regarding `CCOC(=O)c1ccc(OS(N)(=O)=O)cc1`, the results for the inhibition in data set [1] and in data set [3] were 63.4% and 25.6%, respectively. In data set [2], the pKa (in general, the negative logarithm of the acid dissociation constant) was 8.22. Further, the IC50 – broadly, the concentration that inhibits the measured activity by half – against Steryl-sulfatase [4] was 31.6 µM.

Consider `CCCCCCCCCCOC(=O)c1ccc(OS(N)(=O)=O)cc1`, for which the inhibition (as a rule, the drop in the measured response relative to a control, in per cent) in data set [3] was 36.5%. Inhibition against Steryl-sulfatase [4] was half-maximal at 22.4 µM (IC50).

For the compound `CCCCCCCCOC(=O)c1ccc(OS(N)(=O)=O)cc1`, the inhibition in data set [1] stood at 80.4%; in data set [3], 63%. At Steryl-sulfatase [4], the IC50 was 5 µM.

For `CCCCCOC(=O)c1ccc(OS(N)(=O)=O)cc1`, the inhibition worked out at 86.2% in data set [1] and 64.4% in data set [3]. Besides, in data set [2], the pKa was 8.47. The compound further came in with an IC50 on Steryl-sulfatase [4] of 5.9 µM.

Turning to `CCCCCCCOC(=O)c1ccc(OS(N)(=O)=O)cc1`, the inhibition in data set [1] came out at 83.7%; in data set [3], 69.5%. Also, the pKa in data set [2] was 8.27. On Steryl-sulfatase [4], this compound displayed an IC50 of 3.4 µM.

As for `CCCCOC(=O)c1ccc(OS(N)(=O)=O)cc1`, the pKa in data set [2] was 8.07. Moreover, the inhibition in data set [3] turned out to be 48.3%. Moreover, the IC50 on Steryl-sulfatase [4] is 10.5 µM.

`COC(=O)c1ccc(OS(N)(=O)=O)cc1`: in data set [2], the pKa was 8.28. For the same compound, the inhibition in data set [5] came to 74.7%; in data set [6], 25.4%. The IC50 at Steryl-sulfatase [7] worked out at 31.6 µM.

Turning to `CCCCCCCCCOC(=O)c1ccc(OS(N)(=O)=O)cc1`, the inhibition in data set [1] was determined as 76.2%. The IC50 against Steryl-sulfatase [4] turned out to be 4.8 µM.

On to `CCCCCCOC(=O)c1ccc(OS(N)(=O)=O)cc1`, for which, in data set [2], the pKa was 8.52. Besides, the inhibition in data set [3] stood at 72.6%. Moreover, the IC50 at Steryl-sulfatase [4] is 3.8 µM.

Turning to `C[C@]12CC[C@@H]3c4ccc(OS(N)(=O)=O)cc4CCC3[C@@H]1CCC2=O` (single isomer, unassigned), the inhibition in data set [3] stood at 68.6%.

`CCCOC(=O)c1ccc(OS(N)(=O)=O)cc1`: the figures for the inhibition in data set [1] and in data set [3] were 76.9% and 42.6%, respectively. Also, the pKa in data set [2] was 8.03. Also, 13.2 µM corresponded to half-maximal inhibition on Steryl-sulfatase [4] (IC50).

Source of the values: ChEMBL document CHEMBL1136029, “Inhibition of estrone sulfatase (ES) by derivatives of 4-[(aminosulfonyl)oxy] benzoic acid” (Bioorg Med Chem Lett, 2002).
